Patent US6043285A, “Use of p-aminophenol derivatives for the preparation of pharmaceutical compositions useful in the treatment of neurodegenerative diseases” (Angelini Ricerche S.p.A. Societa'Consortile, priority 1996, dated 2000)
Read-outs that look alike come from different tables or passages of the source.

What was measured:
T98G cell line = assay: Toxicity in the T98G cellular system; assay type: cell-based, human; details: concentration above 10 μM not possible
[1] = tested on: prostaglandin E2 production in J774.2 macrophagic cells; assay: Prostaglandin E2 production in the J774.2 macrophagic cell line stimulated with LPS; assay type: cell-based
Method: (§1) Parallel experiments were conducted in which the ability of paracetamol and indomethacin to inhibit the production of prostaglandins produced by the glioblastoma T98G cell line or by the J774.2 cellular macrophagic cell line was assessed.
Parallel to the above experiment, J774.2 (2×10^6 /ml) macrophagic cells were stimulated with lipopolysaccharide (LPS) (1 μg/ml) for 12 hours. After 3 washes with physiological solution, the cells were incubated for 45 minutes together with increasing concentrations of paracetamol (0.1-100 μM) or indomethacin (0.01-1 μM). At the end of incubation the supernatants were harvested and the prostaglandin E2 content was measured using the previously described test.

[2] = tested on: factor 3 of the complement (C3) production in T98G cell line; assay: Complement factor C3 secretion in the T98G cell line; assay type: cell-based, human; details: for reducing secretion of factors of the complement (in words): T98G cells
Method: The effect of paracetamol on the production of complement factors has been studied using the human glioblastoma T98G cell line. The said line is in fact capable of constitutively producing factor 3 of the complement (C3) and this synthesis is further increased in the presence of various stimuli such as interleukin-1 beta (IL-1β). Indomethacin has been used as the reference drug.
(§2) The cells (2×10^6 /ml) were incubated for 48 hours in the presence of increasing concentrations of paracetamol (10-100-500-1000 μM) or indomethacin (0, 1-1-10 μM) both in the presence and in the absence of IL-1β (50 U/ml). On completion of incubation, the culture medium was harvested and the quantity of C3 secreted by the cells in the various conditions was measured. C3 was assayed in a sandwich-type immunoenzymatic test, in which two anti-C3 antibodies of different species were used as well as an antiserum labeled with an alkaline phosphatase specific for one of the two anti-C3 antibodies. The secreted C3 was quantified using a standard curve prepared on the basis of purified C3.

[3] = tested on: patients suffering from Alzheimer's disease; details: 44 patients, 6 months, in comparison with placebo; cited from earlier work
[4] = tested on: E2 prostaglandins production in T98G cell line; assay: Prostaglandin E2 production in the T98G cell line stimulated with IL-1β; assay type: cell-based, human; details: IL-1β stimulated
Method: as §2, §1
The test with T98G cells stimulated with IL-1β was conducted as described in the previous Example 1. At the end of incubation the culture medium was harvested and the quantity of E2 prostaglandins present was measured. The prostaglandins were assayed by means of a commercially available immunoenzymatic test ([…]).

[5] = tested on: interleukin-6 (IL-6) production in T98G cell line; assay: IL-6 production in the T98G cell line stimulated with β-amyloid; assay type: cell-based, human
Method: The effect of paracetamol on the production of IL-6 was studied using the human cell line glioblastoma T98G. The said line is in fact capable of constitutively producing IL-6 and this synthesis is augmented in the presence of aggregated β-amyloid. Indomethacin was used as the reference drug.
The cells (2×10^6 /ml) were incubated for 48 hours in the presence of increasing concentrations of paracetamol (10-1000 μM) or indomethacin (0.1-10 μM) in the presence of β-amyloid (50 μM) aggregated by incubation at 37° C. for 6 days. At the end of the experiment the culture medium was harvested and the quantity of IL-6 produced in the various conditions was assayed using a commercial immunoenzymatic kit (Biotrak IL-6, Amersham, UK).

[6] = cited from earlier work
[7] = tested on: onset of the Alzheimer disease; details: retrospective, subjects treated for pain and fever; cited from earlier work
peripheral cycloxygenase = details: cited from earlier work
[8] = tested on: T98G and J774.2 cell lines; assay: Selectivity of action on the nervous system (Tables 1 to 4 as a whole); assay type: cell-based; details: contrary to indomethacin
Method: as §1

[9] = low therapeutic doses from 0.5 to 1 g, 3 or 4 times a day; cited from earlier work
[10] = Mus musculus, J774.2, 0.75 h, read-out: Inhibition % of production of prostaglandins
[11] = Homo sapiens, T98G, 48 h, read-out: Inhibition % of production of complement (C3)
[12] = Homo sapiens, T98G, 48 h, read-out: Inhibition % of production of IL-6
[13] = Homo sapiens, T98G, 48 h, IL-1β stimulated (50 U/ml)
[14] = Homo sapiens, T98G, 48 h, not stimulated with IL-1β

For COc1ccc2c(c1)c(CC(=O)O)c(C)n2C(=O)c1ccc(Cl)cc1 [Indomethacin], the “toxicity in the cellular system used” value (T98G cell line) was “because of its toxicity in the cellular system used, it was not possible to increase its concentration above 10 μM”, the inhibition at 0.01 µM [1, 10] was 35.8% and the inhibition at 0.1 µM [1, 10] was 61.1%. It also gave an inhibition at 1 µM [1, 10] of 87.4%, an inhibition at 0.1 µM [2, 11] of 26.9% and an inhibition at 1 µM [2, 11] of 21.7%. The inhibition at 10 µM [2, 11] was 35.1%, the inhibition at 10 µM ([2]; Homo sapiens, T98G, read-out: inhibiting activity on secretion of the complement) was 35% and the “reducing secretion of factors of the complement (in words)” value (“reducing secretion” for short) [2] was “active in reducing the secretion of the complement”. The “reducing secretion” value ([2]; listed as indomethacin) was “capable of reducing secretion of factors of the complement”, the progression of dementia [3] was “notable slowing of the progression of dementia” and the inhibition at 0.1 µM ([4]; Homo sapiens, 0.1 μM) was 99.3%. The inhibition at 1 µM ([4]; Homo sapiens, 1 μM) was 98.4%, the inhibition at 10 µM ([4]; Homo sapiens) was 99.1% and the “inhibiting production of prostaglandins in glial cells (in words)” value [4] was “capable of inhibiting production of prostaglandins in the glial cells of the central nervous system in a significant manner”. The inhibition at 0.1 µM [5, 12] was 21.1%, the inhibition at 1 µM [5, 12] was 17.6% and the inhibition at 10 µM [5, 12] was 11.5%.
In the case of CC(=O)Nc1ccc(O)cc1 [Paracetamol, N-acetyl-p-aminophenol], the plasma concentration ([6]; after 6 hours, oral administration of 1 g) is given as “approximately 1.5 mg/l”, the tissue distribution ([6]; in words, including the brain) is given as “distributed evenly throughout the major part of the tissues of the organism, including the brain” and the absorption ([6]; in words) is given as “rapidly absorbed”. For the same molecule, the “tissue concentration relative to plasma” value ([6]; oral administration) was “substantially the same as the plasma concentration”, the plasma concentration ([6]; within a few minutes of oral administration of 1 g) was “approximately 10 mg/l” and the concentration ([6]; within a few minutes of oral administration of 1 g, read-out: plasma concentration) was roughly 66.2 µM. For the same molecule, the “delay in the onset of the Alzheimer disease” value [7] was “negative”, the “action on peripheral cycloxygenase” value (peripheral cycloxygenase) was “absence of action on peripheral cycloxygenase” and the “inhibiting activity on production of prostaglandins in macrophages (in words)” value ([1]; J774.2, LPS stimulated) was “little inhibiting activity on production of prostaglandins in macrophages”. The inhibition at 0.1 µM ([1]; Mus musculus, 0.75 h, J774.2, LPS stimulated (1 μg/ml), 45 minutes, 0.1 μM, read-out: Inhibition % of production of prostaglandins) was 5.3%, the inhibition at 1 µM ([1]; Mus musculus, 0.75 h, J774.2, LPS stimulated (1 μg/ml), 45 minutes, 1 μM, read-out: Inhibition % of production of prostaglandins) was 6.4% and the inhibition at 10 µM ([1]; Mus musculus, 0.75 h, J774.2, LPS stimulated (1 μg/ml), 45 minutes, 10 μM, read-out: Inhibition % of production of prostaglandins) was 12.5%. It also gave an inhibition at 100 µM ([1]; Mus musculus, 0.75 h, J774.2, LPS stimulated (1 μg/ml), 45 minutes, 100 μM, read-out: Inhibition % of production of prostaglandins) of 11.4%, an inhibition at 100 µM ([2]; Homo sapiens, T98G, 48 h, IL-1β stimulated (50 U/ml), 100 μM) of 23.6% and an inhibition at 500 µM [2, 13] of 39.8%. It also gave an inhibition at 1000 µM [2, 13] of 47.5%, an inhibition at 10 µM ([2]; Homo sapiens, T98G, 48 h, IL-1β stimulated (50 U/ml), 48 hours, 10 μM, read-out: Inhibition % of production of complement (C3)) of 0.1% and an inhibition at 500 µM [2, 14] of 37.4%. For the same molecule, the inhibition at 1000 µM [2, 14] was 60.8%, the IC50 ([2]; Homo sapiens, T98G, cells stimulated with interleukin-1 beta, read-out: Cl50 for secretion of C3) was roughly 1000 µM and the “reducing secretion” value [2] was “capable of reducing secretion of factors of the complement”. For the same molecule, the “selectivity of action on the nervous system” value [8] was “peculiar selectivity of action on the nervous system”, the inhibition at 10 µM ([4]; Homo sapiens) was 26.7% and the inhibition at 100 µM ([4]; Homo sapiens, 100 μM) was 88.5%. The inhibition at 500 µM ([4]; Homo sapiens, 500 μM) was 96.9%, the inhibition at 1000 µM ([4]; Homo sapiens, 1000 μM) was 99% and the “inhibiting production of prostaglandins in glial cells (in words)” value [4] was “capable of inhibiting production of prostaglandins in the glial cells of the central nervous system in a significant manner”. It also gave an inhibition at 10 µM ([5]; Homo sapiens, T98G, β-amyloid stimulated (50 μM), 48 hours, 10 μM, read-out: Inhibition % of production of IL-6) of 11.4%, an inhibition at 100 µM ([5]; Homo sapiens, T98G, β-amyloid stimulated (50 μM), 48 hours, 100 μM) of 6.7% and an inhibition at 500 µM ([5]; Homo sapiens, T98G, β-amyloid stimulated (50 μM), 48 hours, 500 μM) of 20.5%. For the same molecule, the inhibition at 1000 µM ([5]; Homo sapiens, T98G, β-amyloid stimulated (50 μM), 48 hours, 1000 μM) was 41.2%, the IC50 ([5]; Homo sapiens, T98G, β-amyloid stimulated, read-out: Cl50 for production of IL-6) was greater than 1000 µM and the “reducing the secretion of IL-6 (in words)” value ([5]; in the presence of β-amyloid) was “capable of reducing the secretion of IL-6”. For the same molecule, the side effects [9] was “no significant side effects” and the tolerability [9] was “well tolerated”.
